In US20090318446A1, “4-(1H-Indol-3-yl)-Pyrimidin-2-Ylamine Derivatives and Their Use in Therapy” (Cyclacel Limited, priority 2005, published 2009):
Like-named read-outs stand apart in the source and are kept apart here.

Key:
Type in all cases: biochemical
aurora-A = target: T1, aurora-A (Homo sapiens, UniProt O14965); assay: Aurora-A (human) kinase assay
T1 construct: purchased Upstate, Dundee, UK
T1 sequence (O14965 1-403): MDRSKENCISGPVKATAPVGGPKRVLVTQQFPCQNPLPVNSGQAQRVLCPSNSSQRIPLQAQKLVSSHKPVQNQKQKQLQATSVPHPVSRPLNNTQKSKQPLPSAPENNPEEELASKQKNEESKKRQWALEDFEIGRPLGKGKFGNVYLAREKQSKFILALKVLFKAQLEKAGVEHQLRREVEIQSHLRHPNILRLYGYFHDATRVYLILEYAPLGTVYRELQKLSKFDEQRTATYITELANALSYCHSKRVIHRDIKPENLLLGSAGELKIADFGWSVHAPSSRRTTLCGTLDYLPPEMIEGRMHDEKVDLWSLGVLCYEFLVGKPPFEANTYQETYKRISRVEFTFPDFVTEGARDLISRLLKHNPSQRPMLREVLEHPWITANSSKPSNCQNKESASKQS
Description: (§1) This was achieved by measurement of incorporation of radioactive phosphate from ATP into Kemptide substrate (LRRASLG), upon phosphorylation by commercially obtained aurora-A (human, Upstate, Dundee, UK). Assays were performed using 96-well plates and appropriate assay buffers (20 mM Tris, 25 mM β-glycerophosphate, 5 mM EGTA, 1 mM DTT, 1 mM sodium vanadate, pH 7.5), into which were added 2-5 ng of active enzyme with 500 μM substrate (Kemptide). The reactions were initiated by addition of MgATP mix (15 mM MgCl2+100 μM ATP with 15-25 kBq per well of [γ-^32P]-ATP) and mixtures incubated for 30 min at 30° C. Reactions were stopped by addition of an equal volume of 75 mM aq orthophosphoric acid, followed by filtration through p81 filterplates (Whatman Polyfiltronics, Kent, UK). After washing 4 times with 75 mM aq orthophosphoric acid, plates were dried, scintillant added and incorporated radioactivity measured in a scintillation counter (TopCount, Packard Instruments, Pangbourne, Berks, UK). Compounds for kinase assay were made up as 10 mM stocks in DMSO and diluted into 10% DMSO in assay buffer. Data was analysed using curve-fitting software (XLfit version 4.0.2, IDBS, Guildford, Surrey, UK) to determine IC50 values (concentration of test compound which inhibits kinase activity by 50%).

Flt-3 = target: T2, Flt-3 (Homo sapiens, UniProt P36888); assay: Flt3 kinase assay
T2 construct: purchased Upstate, Dundee, UK
T2 sequence (P36888 564-993 limits assumed): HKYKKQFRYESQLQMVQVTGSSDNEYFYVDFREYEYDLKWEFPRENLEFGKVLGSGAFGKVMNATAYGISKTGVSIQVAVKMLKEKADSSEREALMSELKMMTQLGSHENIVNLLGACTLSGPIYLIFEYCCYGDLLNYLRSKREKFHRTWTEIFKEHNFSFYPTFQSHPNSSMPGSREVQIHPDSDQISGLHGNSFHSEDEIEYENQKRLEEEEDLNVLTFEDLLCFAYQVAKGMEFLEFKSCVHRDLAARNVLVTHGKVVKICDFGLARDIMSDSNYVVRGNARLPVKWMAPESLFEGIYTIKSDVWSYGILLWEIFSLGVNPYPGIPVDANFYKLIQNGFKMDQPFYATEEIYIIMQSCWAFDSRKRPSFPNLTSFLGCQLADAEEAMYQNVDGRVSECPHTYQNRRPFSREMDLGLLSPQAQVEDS
Description: as §1, with “myelin basic protein (MBP) substrate,” for “Kemptide substrate (LRRASLG),”, “Flt-3” for “aurora-A (human,”, “5” for “2-5”, “0.4 mg/ml” for “500 μM”, “(MBP).” for “(Kemptide).”

CDK9/cyclin T1 = CDK9/cyclin T1 (Homo sapiens, UniProt P50750); assay: CDK 9 assay
CDK9/cyclin T1, sequence (P50750 whole entry): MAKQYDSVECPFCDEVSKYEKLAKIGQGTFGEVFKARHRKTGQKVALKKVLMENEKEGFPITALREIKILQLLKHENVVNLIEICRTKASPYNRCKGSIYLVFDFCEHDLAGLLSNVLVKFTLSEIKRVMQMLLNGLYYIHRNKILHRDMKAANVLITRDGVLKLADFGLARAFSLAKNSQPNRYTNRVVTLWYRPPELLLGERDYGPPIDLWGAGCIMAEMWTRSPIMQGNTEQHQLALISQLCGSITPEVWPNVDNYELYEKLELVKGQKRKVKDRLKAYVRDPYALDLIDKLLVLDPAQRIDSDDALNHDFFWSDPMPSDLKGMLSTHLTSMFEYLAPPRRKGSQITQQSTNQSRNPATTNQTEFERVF
CDK9/cyclin T1, sequence (O60563 whole entry partner): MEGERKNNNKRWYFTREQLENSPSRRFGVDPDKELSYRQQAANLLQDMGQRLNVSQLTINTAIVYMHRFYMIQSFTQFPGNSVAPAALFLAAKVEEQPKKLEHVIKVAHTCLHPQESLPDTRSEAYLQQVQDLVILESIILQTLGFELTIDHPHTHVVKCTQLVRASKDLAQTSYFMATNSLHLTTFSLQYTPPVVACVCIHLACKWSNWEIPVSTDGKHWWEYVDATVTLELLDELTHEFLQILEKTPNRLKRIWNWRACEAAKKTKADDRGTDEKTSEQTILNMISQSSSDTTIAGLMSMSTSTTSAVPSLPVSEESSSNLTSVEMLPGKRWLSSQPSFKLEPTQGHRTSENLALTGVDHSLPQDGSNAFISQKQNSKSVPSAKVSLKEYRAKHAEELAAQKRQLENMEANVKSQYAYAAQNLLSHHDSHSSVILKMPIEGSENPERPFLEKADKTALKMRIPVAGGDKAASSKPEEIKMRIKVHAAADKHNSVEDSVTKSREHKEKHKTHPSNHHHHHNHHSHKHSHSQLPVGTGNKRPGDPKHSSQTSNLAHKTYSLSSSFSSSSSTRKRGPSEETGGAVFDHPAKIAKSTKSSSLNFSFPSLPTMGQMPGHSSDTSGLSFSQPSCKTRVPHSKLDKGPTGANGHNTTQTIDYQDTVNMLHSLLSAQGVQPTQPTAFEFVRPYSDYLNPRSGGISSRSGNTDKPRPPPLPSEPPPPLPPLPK
Description: CTD peptide substrate (biotinyl-Ahx-(Tyr-Ser-Pro-Thr-Ser-Pro-Ser)4-NH2; 1-2 mg/mL) and recombinant human CDK7/cyclin H, CDK9/cyclin TI, or CDK9/cyclin K (0.5-2 μg) were incubated for 45 min at 30° C. in the presence of varying amounts of test compound in 20 mM MOPS pH 7.2, 25 mM β-glycerophosphate, 5 mM EGTA, 1 mM DTT, 1 mM sodium vanadate, 15 mM MgCl2, and 100 μM ATP (containing a trace amount of ^32PγATP) in a total volume of 25 μL in a 96-well microtiter plate. The reaction was stopped by placing the plate on ice for 2 min. Avidin (50 μg) was added to each well, and the plate was incubated at room temp for 30 min. The samples were transferred to a 96-well P81 filter plate, and washed (4×200 μL per well) with 75 mM phosphoric acid. Microscint 40 scintillation liquid (50 μL) was added to each well, and the amount of ^32P incorporation for each sample was measured using a Packard Topcount microplate scintillation counter.

[1] = Table 2, read-out: Kinase inhibition IC50 Aurora A
[2] = Table 2, read-out: Kinase inhibition IC50 FLT3
[3] = Table 3, read-out: Kinase inhibition Flt3
[4] = Table 2, read-out: Kinase inhibition IC50 CDK9T1
[5] = Table 3, read-out: Kinase inhibition CDK9T1
[6] = Table 3, values without asterisk, read-out: Kinase inhibition Aurora A

SMILES | IC50 (aurora-A; [1]) | IC50 (Flt-3; [2]) | IC50 (Flt-3; [3]) | IC50 (CDK9/cyclin T1; [4]) | IC50 (CDK9/cyclin T1; [5]) | IC50 (aurora-A; [6])
O=[N+]([O-])c1cccc(Nc2nccc(-c3c[nH]c4ccccc34)n2)c1 [Compound 2, [4-(1H-Indol-3-yl)-pyrimidin-2-yl]-(3-nitro-phenyl)-amine] | 270 nM | 130 nM | 133 nM | 6100 nM | 6080 nM | –
Fc1ccc(Nc2nccc(-c3c[nH]c4ccccc34)n2)cc1 [Compound 3, (4-Fluoro-phenyl)-[4-(1H-indol-3-yl)-pyrimidin-2-yl]-amine] | 1100 nM | 270 nM | 274 nM | > 100000 nM | – | –
COc1ccc(Nc2nccc(-c3c[nH]c4ccccc34)n2)cn1 [Compound 4, [4-(1H-Indol-3-yl)-pyrimidin-2-yl]-(6-methoxy-pyridin-3-yl)-amine] | 240 nM | 150 nM | 148 nM | 2800 nM | 2820 nM | –
c1ccc2c(-c3ccnc(Nc4ccc(N5CCOCC5)cc4)n3)c[nH]c2c1 [Compound 5, [4-(1H-Indol-3-yl)-pyrimidin-2-yl]-(4-morpholin-4-yl-phenyl)-amine] | 58 nM | 52 nM | 51.6 nM | > 10000 nM | – | 804 nM
CC(=O)N1CCN(c2ccc(Nc3nccc(-c4c[nH]c5ccccc45)n3)cc2)CC1 [Compound 6, 4-(1H-indol-3-yl)-N-(4-acetylpiperazin-1-ylphenyl)pyrimidin-2-amine] | – | – | 13.3 nM | – | 2080 nM | 130 nM
CC1CN(c2ccc(Nc3nccc(-c4c[nH]c5ccccc45)n3)cc2)CC(C)O1 (stereo not shown) [Compound 9] | – | – | 29.8 nM | – | 3030 nM | 277 nM
CN(C)c1ccc(Nc2nccc(-c3c[nH]c4ccccc34)n2)cc1 [Compound 10, N′-[4-(1H-indol-3-yl)pyrimidin-2-yl]-N,N-dimethylbenzene-1,4-diamine] | – | – | 84.9 nM | – | 1590 nM | 282 nM
CC(=O)N1CCN(c2ccc(Nc3nccc(-c4c[nH]c5c(C)cccc45)n3)cc2)CC1 [Compound 23] | – | – | 33.2 nM | – | 1540 nM | 91.7 nM

Compounds with a lower IC50 (Flt-3; [3]), results first:

IC50 (aurora-A; [1]) | IC50 (Flt-3; [2]) | IC50 (Flt-3; [3]) | IC50 (CDK9/cyclin T1; [4]) | IC50 (CDK9/cyclin T1; [5]) | IC50 (aurora-A; [6]) | SMILES
– | – | 12.7 nM | – | 520 nM | 221 nM | c1ccc2c(-c3ccnc(Nc4ccc(N5CCNCC5)cc4)n3)c[nH]c2c1 [Compound 7, 4-(1H-indol-3-yl)-N-(4-piperazin-1-ylphenyl)pyrimidin-2-amine]
– | – | 1.3 nM | – | 1260 nM | 53.4 nM | COc1cc(Nc2nccc(-c3c[nH]c4ccccc34)n2)cc(OC)c1OC [Compound 12, 4-(1H-indol-3-yl)-N-(3,4,5-trimethoxyphenyl)pyrimidin-2-amine]
– | – | 2.4 nM | – | 4240 nM | 112 nM | COc1cc(Nc2nccc(-c3c[nH]c4ccccc34)n2)ccc1N1CCOCC1 [Compound 13, 4-(1H-indol-3-yl)-N-(3-methoxyl-4-morpholin-4-ylphenyl)pyrimidin-2-amine]
– | – | 11 nM | – | 4440 nM | 37.7 nM | CC(=O)N1CCN(c2ccc(Nc3nccc(-c4c(C)[nH]c5ccccc45)n3)cc2)CC1 [Compound 22]
